Data taken from patent publication US6737383B1, “Herbicidal oxadiazolidines” (priority 1999, dated 2004).

Key:
smallflower flatsedge = assay: Test B flood test smallflower flatsedge; type: in vivo, Cyperus difformis
How it was run: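 Plants were grown to the 2-leaf stage before treatment with test chemical, then held in a greenhouse for twelve to sixteen days. Injury was visually rated against untreated controls on a 0–10 scale, where 0 is no effect and 10 is complete control.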

soybean = assay: Test B pre/postemergence soybean; type: in vivo, Glycine max
How it was run: (§1)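 Test chemicals in a non-phytotoxic solvent mixture with surfactant were sprayed preemergence onto planted seeds and postemergence onto plants 2 to 18 cm tall (1- to 4-leaf stage). After twelve to sixteen days in a greenhouse, injury was visually rated against untreated controls from 0 (no effect) to 10 (complete control).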

rape = assay: Test B pre/postemergence rape; type: in vivo, Brassica napus
How it was run: as §1

corn = assay: Test B pre/postemergence corn; type: in vivo, Zea mays
How it was run: as §1

[1] = Postemergence, Rate 1000 g/ha, scale 0 to 10 (0 no effect, 10 complete control)
[2] = Rate 125 g/ha, Postemergence section (flood test species), scale 0 to 10, 0 no effect, 10 complete control
[3] = flood test, listed under Postemergence, Rate 250 g/ha, scale 0 to 10, 0 no effect, 10 complete control
[4] = Postemergence, Rate 250 g/ha, scale 0 to 10, 0 no effect, 10 complete control
[5] = Preemergence, Rate 125 g/ha, scale 0 to 10 (0 no effect, 10 complete control)
[6] = Preemergence, Rate 250 g/ha, scale of 0 to 10 where 0 is no effect and 10 is complete control
[7] = Preemergence, Rate 500 g/ha, scale 0 (no effect) to 10 (complete control)
[8] = Rate 125 g/ha, Postemergence, scale 0 to 10, 0 no effect, 10 complete control
[9] = Rate 1000 g/ha, Preemergence, scale 0 to 10 (0 no effect, 10 complete control)
[10] = Rate 500 g/ha, Postemergence, 0 to 10 scale (0 no effect, 10 complete control)
[11] = Postemergence, Rate 62 g/ha, scale 0 to 10, 0 is no effect, 10 is complete control
[12] = Preemergence, Rate 62 g/ha, scale 0 to 10, 0 is no effect, 10 is complete control
[13] = Preemergence, Rate 31 g/ha, visual rating, scale 0 to 10 (0 no effect, 10 complete control)
[14] = Rate 31 g/ha, Postemergence, scale 0 to 10
[15] = Preemergence, Rate 62 g/ha, scale 0 to 10 (0 no effect, 10 complete control)
[16] = Rate 500 g/ha, Postemergence, scale 0 to 10, 0 no effect, 10 complete control

CCN(CC)C(=O)n1oc(=O)n(-c2ccc(F)cc2)c1=O [Compound 3]
S. Flatsedge plant response rating (smallflower flatsedge; [1]): 0
S. Flatsedge plant response rating (smallflower flatsedge; [2]): 0
S. Flatsedge plant response rating (smallflower flatsedge; [3]): 0
Soybean plant response rating (soybean; [4]): 1
Soybean plant response rating (soybean; [1]): 2
Plant response rating, Soybean (soybean; [5]): 0
Plant response rating, Soybean (soybean; [6]): 0
Soybean plant response rating (soybean; [7]): 0
Soybean plant response rating (soybean; [8]): 0
Plant response rating, Soybean (soybean; [9]): 0
Rape plant response rating (rape; [4]): 0
Rape plant response rating (rape; [1]): 0
Plant response rating, Rape (rape; [5]): 0
Plant response rating, Rape (rape; [6]): 0
Rape plant response rating (rape; [7]): 0
Rape plant response rating (rape; [8]): 0
Rape plant response rating (rape; [10]): 0
Plant response rating, Rape (rape; [9]): 0
Corn plant response rating (corn; [4]): 0
Corn plant response rating (corn; [1]): 0
Plant response rating, Corn (corn; [5]): 0
Plant response rating, Corn (corn; [6]): 0
Corn plant response rating (corn; [7]): 0
Corn plant response rating (corn; [8]): 0
Corn plant response rating (corn; [10]): 0
Plant response rating, Corn (corn; [9]): 0

COc1ccc(-n2c(=O)on(C(=O)N(c3ccc(F)cc3)C(C)C)c2=O)cc1 [Compound 5]
S. Flatsedge plant response rating (smallflower flatsedge; [1]): 2
S. Flatsedge plant response rating (smallflower flatsedge; [2]): 0
S. Flatsedge plant response rating (smallflower flatsedge; [3]): 0
Soybean plant response rating (soybean; [4]): 5
Soybean plant response rating (soybean; [1]): 6
Plant response rating, Soybean (soybean; [5]): 0
Plant response rating, Soybean (soybean; [6]): 0
Soybean plant response rating (soybean; [7]): 0
Soybean plant response rating (soybean; [8]): 5
Plant response rating, Soybean (soybean; [9]): 0
Rape plant response rating (rape; [4]): 5
Rape plant response rating (rape; [1]): 5
Plant response rating, Rape (rape; [5]): 0
Plant response rating, Rape (rape; [6]): 0
Rape plant response rating (rape; [7]): 0
Rape plant response rating (rape; [8]): 5
Rape plant response rating (rape; [10]): 4
Plant response rating, Rape (rape; [9]): 0
Corn plant response rating (corn; [4]): 0
Corn plant response rating (corn; [1]): 0
Plant response rating, Corn (corn; [5]): 0
Plant response rating, Corn (corn; [6]): 0
Corn plant response rating (corn; [7]): 0
Corn plant response rating (corn; [8]): 0
Corn plant response rating (corn; [10]): 0
Plant response rating, Corn (corn; [9]): 0

CC(C)N(C(=O)n1oc(=O)n(-c2ccccc2OC(F)(F)F)c1=O)c1ccc(F)cc1 [Compound 14]
S. Flatsedge plant response rating (smallflower flatsedge; [11]): 0
S. Flatsedge plant response rating (smallflower flatsedge; [2]): 0
S. Flatsedge plant response rating (smallflower flatsedge; [3]): 0
Soybean plant response rating (soybean; [11]): 2
Soybean plant response rating (soybean; [4]): 2
Plant response rating, Soybean (soybean; [12]): 0
Plant response rating, Soybean (soybean; [5]): 0
Plant response rating, Soybean (soybean; [6]): 0
Soybean plant response rating (soybean; [7]): 0
Soybean plant response rating (soybean; [8]): 2
Rape plant response rating (rape; [11]): 0
Rape plant response rating (rape; [4]): 0
Plant response rating, Rape (rape; [12]): 0
Plant response rating, Rape (rape; [5]): 0
Plant response rating, Rape (rape; [6]): 0
Rape plant response rating (rape; [7]): 0
Rape plant response rating (rape; [8]): 0
Rape plant response rating (rape; [10]): 0
Corn plant response rating (corn; [11]): 0
Corn plant response rating (corn; [4]): 0
Plant response rating, Corn (corn; [12]): 0
Plant response rating, Corn (corn; [5]): 0
Plant response rating, Corn (corn; [6]): 0
Corn plant response rating (corn; [7]): 4
Corn plant response rating (corn; [8]): 0
Corn plant response rating (corn; [10]): 0

CC(C)N(C(=O)n1oc(=O)n(-c2ccc(F)cc2F)c1=O)c1ccc(F)cc1F [Compound 22]
S. Flatsedge plant response rating (smallflower flatsedge; [11]): 0
S. Flatsedge plant response rating (smallflower flatsedge; [2]): 0
S. Flatsedge plant response rating (smallflower flatsedge; [3]): 4
Soybean plant response rating (soybean; [11]): 3
Soybean plant response rating (soybean; [4]): 4
Soybean plant response rating (soybean; [13]): 0
Plant response rating, Soybean (soybean; [12]): 0
Plant response rating, Soybean (soybean; [5]): 0
Plant response rating, Soybean (soybean; [6]): 0
Soybean plant response rating (soybean; [8]): 3
Rape plant response rating (rape; [11]): 0
Rape plant response rating (rape; [4]): 0
Rape plant response rating (rape; [13]): 0
Plant response rating, Rape (rape; [12]): 0
Plant response rating, Rape (rape; [5]): 3
Plant response rating, Rape (rape; [6]): 3
Rape plant response rating (rape; [14]): 0
Rape plant response rating (rape; [8]): 0
Corn plant response rating (corn; [11]): 0
Corn plant response rating (corn; [4]): 0
Corn plant response rating (corn; [13]): 0
Plant response rating, Corn (corn; [12]): 0
Plant response rating, Corn (corn; [5]): 0
Plant response rating, Corn (corn; [6]): 2
Corn plant response rating (corn; [14]): 0
Corn plant response rating (corn; [8]): 0

CCN(C(=O)n1oc(=O)n(-c2ccc(F)cc2F)c1=O)C1CCCCC1 [Compound 23]
S. Flatsedge plant response rating (smallflower flatsedge; [11]): 0
S. Flatsedge plant response rating (smallflower flatsedge; [2]): 0
S. Flatsedge plant response rating (smallflower flatsedge; [3]): 0
Soybean plant response rating (soybean; [11]): 3
Soybean plant response rating (soybean; [4]): 4
Soybean plant response rating (soybean; [13]): 0
Plant response rating, Soybean (soybean; [12]): 0
Plant response rating, Soybean (soybean; [5]): 0
Plant response rating, Soybean (soybean; [6]): 0
Soybean plant response rating (soybean; [8]): 3
Rape plant response rating (rape; [11]): 0
Rape plant response rating (rape; [4]): 0
Rape plant response rating (rape; [13]): 0
Plant response rating, Rape (rape; [12]): 0
Plant response rating, Rape (rape; [5]): 0
Plant response rating, Rape (rape; [6]): 0
Rape plant response rating (rape; [14]): 0
Rape plant response rating (rape; [8]): 0
Corn plant response rating (corn; [11]): 0
Corn plant response rating (corn; [4]): 0
Corn plant response rating (corn; [13]): 0
Plant response rating, Corn (corn; [12]): 0
Plant response rating, Corn (corn; [5]): 0
Plant response rating, Corn (corn; [6]): 0
Corn plant response rating (corn; [14]): 0
Corn plant response rating (corn; [8]): 0

Cc1ccc(-n2c(=O)on(C(=O)N(c3ccc(F)cc3F)C(C)C)c2=O)c(C)c1 [Compound 24]
S. Flatsedge plant response rating (smallflower flatsedge; [11]): 0
S. Flatsedge plant response rating (smallflower flatsedge; [2]): 0
S. Flatsedge plant response rating (smallflower flatsedge; [3]): 0
Soybean plant response rating (soybean; [11]): 3
Soybean plant response rating (soybean; [4]): 3
Plant response rating, Soybean (soybean; [12]): 0
Plant response rating, Soybean (soybean; [5]): 0
Plant response rating, Soybean (soybean; [6]): 0
Soybean plant response rating (soybean; [7]): 2
Soybean plant response rating (soybean; [8]): 3
Rape plant response rating (rape; [11]): 0
Rape plant response rating (rape; [4]): 0
Plant response rating, Rape (rape; [12]): 0
Plant response rating, Rape (rape; [5]): 0
Plant response rating, Rape (rape; [6]): 0
Rape plant response rating (rape; [7]): 1
Rape plant response rating (rape; [8]): 0
Rape plant response rating (rape; [10]): 2
Corn plant response rating (corn; [11]): 0
Corn plant response rating (corn; [4]): 0
Plant response rating, Corn (corn; [12]): 0
Plant response rating, Corn (corn; [5]): 0
Plant response rating, Corn (corn; [6]): 0
Corn plant response rating (corn; [7]): 0
Corn plant response rating (corn; [8]): 0
Corn plant response rating (corn; [10]): 0

COc1ccc(-n2c(=O)on(C(=O)N(c3ccc(F)cc3)C(C)C)c2=O)c(OC)c1 [Compound 33]
S. Flatsedge plant response rating (smallflower flatsedge; [11]): 0
S. Flatsedge plant response rating (smallflower flatsedge; [2]): 0
S. Flatsedge plant response rating (smallflower flatsedge; [3]): 2
Soybean plant response rating (soybean; [11]): 2
Soybean plant response rating (soybean; [4]): 3
Soybean plant response rating (soybean; [13]): 0
Plant response rating, Soybean (soybean; [12]): 0
Plant response rating, Soybean (soybean; [5]): 0
Plant response rating, Soybean (soybean; [6]): 0
Soybean plant response rating (soybean; [8]): 3
Rape plant response rating (rape; [11]): 0
Rape plant response rating (rape; [4]): 3
Rape plant response rating (rape; [13]): 0
Plant response rating, Rape (rape; [12]): 0
Plant response rating, Rape (rape; [5]): 0
Plant response rating, Rape (rape; [6]): 0
Rape plant response rating (rape; [14]): 0
Rape plant response rating (rape; [8]): 0
Corn plant response rating (corn; [11]): 0
Corn plant response rating (corn; [4]): 0
Corn plant response rating (corn; [13]): 0
Plant response rating, Corn (corn; [12]): 0
Plant response rating, Corn (corn; [5]): 0
Plant response rating, Corn (corn; [6]): 0
Corn plant response rating (corn; [14]): 0
Corn plant response rating (corn; [8]): 0

COc1cccc(C)c1-n1c(=O)on(C(=O)N(c2ccc(F)cc2)C(C)C)c1=O [Compound 62]
S. Flatsedge plant response rating (smallflower flatsedge; [11]): 0
S. Flatsedge plant response rating (smallflower flatsedge; [2]): 0
S. Flatsedge plant response rating (smallflower flatsedge; Rate 500 g/ha, listed under Postemergence (flood test species), scale 0 to 10, 0 no effect, 10 complete control): 0
S. Flatsedge plant response rating (smallflower flatsedge; [3]): 0
Soybean plant response rating (soybean; [11]): 1
Soybean plant response rating (soybean; [4]): 2
Soybean plant response rating (soybean; [15]): 0
Plant response rating, Soybean (soybean; [5]): 0
Plant response rating, Soybean (soybean; [6]): 0
Soybean plant response rating (soybean; [7]): 0
Soybean plant response rating (soybean; [8]): 1
Soybean plant response rating (soybean; [16]): 3
Rape plant response rating (rape; [11]): 0
Rape plant response rating (rape; [4]): 0
Rape plant response rating (rape; [15]): 0
Plant response rating, Rape (rape; [5]): 0
Plant response rating, Rape (rape; [6]): 0
Rape plant response rating (rape; [7]): 0
Rape plant response rating (rape; [8]): 0
Rape plant response rating (rape; [16]): 0
Corn plant response rating (corn; [11]): 0
Corn plant response rating (corn; [4]): 0
Corn plant response rating (corn; [15]): 0
Plant response rating, Corn (corn; [5]): 0
Plant response rating, Corn (corn; [6]): 0
Corn plant response rating (corn; [7]): 0
Corn plant response rating (corn; [8]): 0
Corn plant response rating (corn; [16]): 0
